Test results from ChEMBL document CHEMBL1124229, “Spiro hydantoin aldose reductase inhibitors” (J Med Chem, 1988).
Values belong to the compound of their own block, whether it stands above or below them.

Tests used:
Rattus norvegicus [1] = species on record: Rattus norvegicus; assay: Ability to cause 50% reduction in sorbitol levels of sciatic nerve of streptozotocinized rats was determined; format: functional; settings: Rattus norvegicus, Sciatic nerve; read-out: ED50
[2] = biological target: Aldo-keto reductase family 1 member B1 (Homo sapiens, UniProt P15121); assay: In vitro inhibitory activity towards partially purified human placenta aldose reductase
[3] = biological target: T1, Aldo-keto reductase family 1 member B1 (Bos taurus, UniProt P16116); assay: Inhibition of partially purified calf lens aldose reductase; value ranges from 10E-4 to 10e-5 M
Rattus norvegicus [4] = species on record: Rattus norvegicus; assay: Ability to cause 50% reduction in sorbitol levels of sciatic nerve of streptozotocinized rats was determined; value ranges from 10-25; format: functional
[5] = biological target: T1, Aldo-keto reductase family 1 member B1; assay: In vitro inhibition of partially purified calf lens aldose reductase
Rattus norvegicus [6] = species on record: Rattus norvegicus; assay: 50% reduction in sorbitol accumulation in isolated sciatic nerves incubated in the presence of high glucose concentration; format: functional; settings: Sciatic nerve
[7] = pKa in DMF/H2O was measured; format: physicochemical
Rattus norvegicus [8] = species on record: Rattus norvegicus; assay: Ability to cause 50% reduction in sorbitol levels of sciatic nerve of streptozotocinized rats was determined; value ranges from 0.25-0.75; format: functional
Rattus norvegicus [9] = species on record: Rattus norvegicus; assay: Ability to cause 50% reduction in sorbitol levels of sciatic nerve of streptozotocinized rats was determined; value ranges from 2.5-5; format: functional
[10] = biological target: T1, Aldo-keto reductase family 1 member B1; assay: In vitro inhibitory activity towards partially purified calf lens aldose reductase; value ranges from 10E-6 - 10E-7
Rattus norvegicus [11] = species on record: Rattus norvegicus; assay: Ability to cause 50% reduction in sorbitol levels of sciatic nerve of streptozotocinized rats was determined; value ranges from 1.5-5; format: functional
Rattus norvegicus [12] = species on record: Rattus norvegicus; assay: Dose causing 50% reduction in sorbitol accumulation in sciatic nerves of streptozotocinized rats, (tid)
[13] = biological target: T1, Aldo-keto reductase family 1 member B1; assay: In vitro inhibition of partially purified calf lens aldose reductase; value ranges from 10E-5 to 10E-6
Rattus norvegicus [14] = species on record: Rattus norvegicus; assay: 50% reduction in sorbitol accumulation in isolated sciatic nerves incubated in the presence of high glucose concentration; value ranges from 10E-2 - 10E-3; format: functional; settings: Sciatic nerve
[15] = biological target: T1, Aldo-keto reductase family 1 member B1; assay: In vitro inhibitory activity towards partially purified calf lens aldose reductase; value ranges from 10E-4 - 10E-6
[16] = biological target: T1, Aldo-keto reductase family 1 member B1; assay: In vitro inhibitory activity towards partially purified calf lens aldose reductase; value ranges from 10E-4- 10E-5
Rattus norvegicus [17] = species on record: Rattus norvegicus; assay: Ability to cause 50% reduction in sorbitol levels of sciatic nerve of streptozotocinized rats was determined; value ranges from 1.5-10; format: functional
Rattus norvegicus [18] = species on record: Rattus norvegicus; assay: Ability to cause 50% reduction in sorbitol levels of sciatic nerve of streptozotocinized rats was determined; value ranges from 25-100; format: functional
Rattus norvegicus [19] = species on record: Rattus norvegicus; assay: Ability to cause 50% reduction in sorbitol levels of sciatic nerve of streptozotocinized rats was determined; value ranges from 5-10; format: functional
Rattus norvegicus [20] = species on record: Rattus norvegicus; assay: Ability to cause 50% reduction in sorbitol levels of sciatic nerve of streptozotocinized rats was determined; value ranges from 250-500; format: functional
[21] = biological target: Aldo-keto reductase family 1 member B1 (Rattus norvegicus, UniProt P07943); assay: In vitro inhibitory activity towards partially purified rat lens aldose reductase

SMILES: CN1C(=O)N(C)[C@@]2(CCOc3ccc(F)cc32)C1=O
ED50 (Rattus norvegicus [1]): < 10 mg/kg
IC50 [2]: > 100 µM

SMILES: O=C1NC(=O)C2(CCc3ccccc32)N1 (configuration not stated)
ED50 (Rattus norvegicus [1]): 5 mg/kg
IC50 [3]: 100 µM
ED50 (Rattus norvegicus [4]): 5 mg/kg

SMILES: O=C1NC(=O)C(N2C(=O)c3cccc4cccc(c34)C2=O)N1 (configuration not stated)
IC50 (Rattus norvegicus [6]): ~10 µM
pKa [7]: 9.5
IC50 [2]: 8 µM

SMILES: O=C1NC(=O)C2(CCOc3c2cc(Cl)c2ccccc32)N1 (configuration not stated)
ED50 (Rattus norvegicus [11]): 1.5 mg/kg
IC50 [5]: < 0.1 µM

SMILES: O=C1NC(=O)C2(CCOc3ccc(Cl)cc32)N1 (configuration not stated)
ED50 (Rattus norvegicus [8]): 0.25 mg/kg
IC50 [5]: 0.1 µM

SMILES: O=C1NC(=O)C2(CCOc3c2ccc2ncccc32)N1 (configuration not stated)
IC50 [10]: 1 µM
ED50 (Rattus norvegicus [17]): 1.5 mg/kg

SMILES: O=C1NC(=O)C2(CCSc3ccccc32)N1 (configuration not stated)
ED50 (Rattus norvegicus [19]): 5 mg/kg
IC50 [5]: 10 µM

SMILES: O=C(O)CN1C(=O)c2cccc3cccc(c23)C1=O [ALRESTATIN]
ED50 (Rattus norvegicus [12]): 0.001 M/kg
ED50 (Rattus norvegicus [20]): 250 mg/kg
IC50 (Rattus norvegicus [6]): 1000 µM
pKa [7]: 4.8
IC50 [13]: 10 µM

SMILES: C[C@@H]1O[C@@H](Oc2c(-c3ccc(O)c(O)c3)oc3cc(O)cc(O)c3c2=O)[C@H](O)[C@H](O)[C@H]1O [QUERCITRIN]
IC50 [21]: ~0.1 µM
ED50 (Rattus norvegicus [1]): > 40 mg/kg
IC50 [13]: 10 µM

Second part, led by results:

IC50 [2]: 100 µM
SMILES: CN1C(=O)NC(=O)[C@]12CCOc1ccc(F)cc12
ED50 (Rattus norvegicus [1]): < 10 mg/kg

IC50 [3]: 100 µM
SMILES: O=C1NC(=O)C2(CCCc3ccccc32)N1 (configuration not stated)
ED50 (Rattus norvegicus [4]): 10 mg/kg

IC50 [5]: 100 µM
SMILES: COc1ccc2c(c1)C1(CCC2)NC(=O)NC1=O (configuration not stated)
ED50 (Rattus norvegicus [4]): 10 mg/kg

IC50 [5]: > 100 µM
SMILES: COc1ccc(F)c2c1CCCC21NC(=O)NC1=O (configuration not stated)
ED50 (Rattus norvegicus [8]): > 25 mg/kg

IC50 [10]: 1 µM
SMILES: O=C1NC(=O)C2(CCn3c(=O)ccc4cccc2c43)N1 (configuration not stated)
ED50 (Rattus norvegicus [9]): 2.5 mg/kg

pKa [7]: 4.9
IC50 [13]: 10 µM
IC50 (Rattus norvegicus [14]): 10000 µM
SMILES: O=C(O)C1CCOc2ccc(Cl)cc21 (configuration not stated)
ED50 (Rattus norvegicus [12]): >0.0001 M/kg
ED50 (Rattus norvegicus [1]): > 25 mg/kg

IC50 [15]: 100 µM
SMILES: O=C(O)C1CCOc2ccc(F)cc21 (configuration not stated)
ED50 (Rattus norvegicus [1]): > 25 mg/kg

IC50 [2]: > 100 µM
SMILES: CN1C(=O)N[C@]2(CCOc3ccc(F)cc32)C1=O
ED50 (Rattus norvegicus [1]): < 10 mg/kg

IC50 [16]: 100 µM
SMILES: COc1ccc2c(c1)CCCC21NC(=O)NC1=O (configuration not stated)
ED50 (Rattus norvegicus [1]): > 25 mg/kg

IC50 [5]: 10 µM
SMILES: O=c1cnn(Cc2ccccc2)c(=O)[nH]1
ED50 (Rattus norvegicus [18]): 25 mg/kg
